“And” between values parts separate entries of the source, which are not always exact repeats. Identical values can stand only once. Like-named read-outs stand apart in the source and are kept apart here.
Tests used:
[1] = system: Alternaria alternata; assay: Growth of A. alternata in liquid culture, optical density after 24 h; assay type: cell-based
[2] = system: Phytophthora infestans; assay type: in vivo; settings: tomato plants
[3] = system: Cercospora beticola; assay: Growth of C. beticola on PDA, colony diameter; assay type: cell-based
Description: Cercospora beticola was cultured on PDA (potato dextrose agar) culture medium buffered to a pH value not exceeding 9.5. […] The % inhibition was calculated with the following formula:
[formula] wherein “colony diameter (control)” is the size of the control colony (without the compounds to be tested) and “colony diameter (x)” is the size of the colony with the substance(s) to be tested. A fixed K2CO3 concentration of 7.24 mM was tested in C. beticola.
The fungus C. beticola was cultured in a similar way to Example 16 with 10 ppm of carvacrol.
The fungus C. beticola was cultured in a similar way to Example 16 with a fixed concentration of K2CO3 (7.24 mM) and carvacrol (10 ppm).

[4] = system: Alternaria alternata; assay: Treated tomato leaves infected with A. alternata, % infection; assay type: in vivo
[5] = system: Penicillium digitatum; assay: Growth of P. digitatum in liquid culture, optical density after 24 h; assay type: cell-based
[6] = system: Botrytis cinerea; assay: Growth of B. cinerea in PDB liquid culture, optical density after 24 h; assay type: cell-based
[7] = system: Botrytis cinerea; assay: Treated tomato leaves infected with B. cinerea, % infection after two weeks; assay type: in vivo
[8] = system: Penicillium digitatum; settings: green mold on oranges; cited from earlier work
[9] = system: Leveillula taurica; assay type: in vivo
[10] = carvacrol 308 ppm, listed as carvacrol
[11] = K2CO3 concentration between 3.5 and 5 mM
[12] = thymol 350 ppm, listed as thymol

Cc1ccc(C(C)C)cc1O [Carvacrol, carvacrol]
inhibition at 0.1 ppm ([1]; Alternaria alternata, read-out: Inhibition ± SD (%), carvacrol 0.1 ppm): 0% | inhibition at 0.31 ppm ([1]; Alternaria alternata, read-out: Inhibition ± SD (%), carvacrol 0.31 ppm): 2 ± 0.3% | inhibition at 1 ppm ([1]; Alternaria alternata, read-out: Inhibition ± SD (%), carvacrol 1 ppm): 3.5 ± 0.8% | inhibition at 3.1 ppm ([1]; Alternaria alternata, read-out: Inhibition ± SD (%), carvacrol 3.1 ppm): 5.8 ± 1.4% | inhibition at 10 ppm ([1]; Alternaria alternata, read-out: Inhibition ± SD (%), carvacrol 10 ppm): 17.7 ± 11% | inhibition at 31 ppm ([1]; Alternaria alternata, read-out: Inhibition ± SD (%), carvacrol 31 ppm): 27% | inhibition at 100 ppm ([1]; Alternaria alternata, read-out: Inhibition ± SD (%), carvacrol 100 ppm): 74.6 ± 8% | Inhibition ± SD (%) ([1]; carvacrol 31 ppm): 27.2 ± 14.0% | Inhibition ± SD (%) ([2]; carvacrol 26 ppm): 3.2 ± 0.8% | Inhibition ± SD (%) ([2]; carvacrol 150 ppm): 17.1 ± 2.3% | Inhibition ± SD (%) ([2]; carvacrol 308 ppm): 35.0 ± 4.8% | Inhibition ± SD (%) [2, 10]: 35% | inhibition at 10 ppm ([3]; Cercospora beticola, carvacrol 10 ppm, read-out: Inhibition ± SD (%)): 17% | Inhibition ± SD (%) ([4]; carvacrol 26 ppm): 4.3% | Inhibition ± SD (%) ([4]; carvacrol 31 ppm): 5.8% | Inhibition ± SD (%) ([4]; carvacrol 100 ppm): 11.4% | Inhibition ± SD (%) ([4]; carvacrol 200 ppm): 16.1% | Inhibition ± SD (%) ([4]; carvacrol 308 ppm): 18% and 18.4% | inhibition at 0.1 ppm ([5]; Penicillium digitatum, 24 h, read-out: Inhibition ± SD (%), carvacrol 0.1 ppm, 24 h OD): 32.3 ± 2.8% | inhibition at 0.31 ppm ([5]; Penicillium digitatum, 24 h, read-out: Inhibition ± SD (%), carvacrol 0.31 ppm, 24 h OD): 34.3 ± 2.8% | inhibition at 1 ppm ([5]; Penicillium digitatum, 24 h, read-out: Inhibition ± SD (%), carvacrol 1 ppm, 24 h OD): 37.9 ± 3% | inhibition at 3.1 ppm ([5]; Penicillium digitatum, 24 h, read-out: Inhibition ± SD (%), carvacrol 3.1 ppm, 24 h OD): 52.6 ± 2.2% | inhibition at 10 ppm ([5]; Penicillium digitatum, 24 h, read-out: Inhibition ± SD (%), carvacrol 10 ppm, 24 h OD): 58% | inhibition at 31 ppm ([5]; Penicillium digitatum, 24 h, read-out: Inhibition ± SD (%), carvacrol 31 ppm, 24 h OD): 86 ± 1.1% | inhibition at 100 ppm ([5]; Penicillium digitatum, 24 h, read-out: Inhibition ± SD (%), carvacrol 100 ppm, 24 h OD): 100% | Inhibition ± SD (%) ([5]; carvacrol 10 ppm, 24 h OD): 57.8 ± 2.1% | inhibition at 0.1 ppm ([6]; Botrytis cinerea, 24 h, read-out: Inhibition ± SD (%), carvacrol 0.1 ppm, 24 h OD): 0% | inhibition at 0.31 ppm ([6]; Botrytis cinerea, 24 h, read-out: Inhibition ± SD (%), carvacrol 0.31 ppm, 24 h OD): 10.5 ± 7.7% | inhibition at 1 ppm ([6]; Botrytis cinerea, 24 h, read-out: Inhibition ± SD (%), carvacrol 1 ppm, 24 h OD): 13.7 ± 4.1% | inhibition at 3.1 ppm ([6]; Botrytis cinerea, 24 h, read-out: Inhibition ± SD (%), carvacrol 3.1 ppm, 24 h OD): 22.4 ± 3.4% | inhibition at 10 ppm ([6]; Botrytis cinerea, 24 h, read-out: Inhibition ± SD (%), carvacrol 10 ppm, 24 h OD): 21% | inhibition at 31 ppm ([6]; Botrytis cinerea, 24 h, read-out: Inhibition ± SD (%), carvacrol 31 ppm, 24 h OD): 51.4 ± 5.5% | inhibition at 100 ppm ([6]; Botrytis cinerea, 24 h, read-out: Inhibition ± SD (%), carvacrol 100 ppm, 24 h OD): 74.4 ± 1.1% | Inhibition ± SD (%) ([6]; carvacrol 10 ppm, 24 h OD): 21.3 ± 5.0% | Inhibition ± SD (%) ([7]; carvacrol 26 ppm): 7.2% | Inhibition ± SD (%) ([7]; carvacrol 31 ppm): 7.4% | Inhibition ± SD (%) ([7]; carvacrol 100 ppm): 16.7% | Inhibition ± SD (%) ([7]; carvacrol 200 ppm): 18.6% | Inhibition ± SD (%) ([7]; carvacrol 308 ppm): 20.8% | Inhibition ± SD (%) [7, 10]: 21%

O=C([O-])[O-].[K+].[K+] [K2CO3, potassium carbonate]
Inhibition ± SD (%) ([1]; K2CO3 3.5 mM, 24 h OD): 32% and 31.5% | Inhibition ± SD (%) ([1]; K2CO3 4.25 mM, 24 h OD): 39.7% | Inhibition ± SD (%) ([1]; K2CO3 4.5 mM, 24 h OD): 48.0% | Inhibition ± SD (%) ([1]; K2CO3 5 mM, 24 h OD): 59.0% | inhibition of the culture [1, 11]: inhibition of the A. alternata culture was observed | Inhibition ± SD (%) ([2]; K2CO3 15 mM): 19% and 18.5 ± 3.6% | Inhibition ± SD (%) ([3]; K2CO3 7.24 mM): 25% | fungicide treatment efficacy [8]: effective as fungicide treatment | Inhibition ± SD (%) ([4]; K2CO3 12 mM): 6.5% | Inhibition ± SD (%) ([4]; K2CO3 13 mM): 7% | Inhibition ± SD (%) ([4]; K2CO3 14 mM): 7.2% | Inhibition ± SD (%) ([4]; K2CO3 15 mM): 7.8% | Inhibition ± SD (%) ([4]; K2CO3 22 mM): 8.6% | Inhibition ± SD (%) ([5]; K2CO3 3.5 mM, 24 h OD): 29% and 29.1% | Inhibition ± SD (%) ([5]; K2CO3 4.25 mM, 24 h OD): 33.0% | Inhibition ± SD (%) ([5]; K2CO3 4.5 mM, 24 h OD): 36.9% | Inhibition ± SD (%) ([5]; K2CO3 5 mM, 24 h OD): 39.5% | inhibition of the culture [5, 11]: inhibition of the P. digitatum culture was observed | Inhibition ± SD (%) ([6]; K2CO3 3.5 mM, 24 h OD): 48% and 48.2% | Inhibition ± SD (%) ([6]; K2CO3 4.25 mM, 24 h OD): 53.3% | Inhibition ± SD (%) ([6]; K2CO3 4.5 mM, 24 h OD): 67.2% | Inhibition ± SD (%) ([6]; K2CO3 5 mM, 24 h OD): 71.0% | inhibition of the culture [6, 11]: inhibition of the B. cinerea culture was observed | Inhibition ± SD (%) ([7]; K2CO3 12 mM): 14% and 13.4% | Inhibition ± SD (%) ([7]; K2CO3 13 mM): 14% and 13.5% | Inhibition ± SD (%) ([7]; K2CO3 14 mM): 13.8% | Inhibition ± SD (%) ([7]; K2CO3 15 mM): 13.8% | Inhibition ± SD (%) ([7]; K2CO3 22 mM): 15.3% | Inhibition ± SD (%) ([9]; K2CO3 15 mM, tomato plants): 14% | Inhibition ± SD (%) ([9]; in vivo): 14% and 13.9 ± 0.5%

Cc1ccc(C(C)C)c(O)c1 [Thymol, thymol]
inhibition at 0.31 ppm ([1]; Alternaria alternata, thymol 0.31 ppm, 24 h OD, read-out: Inhibition ± SD (%)): 0% | inhibition at 1 ppm ([1]; Alternaria alternata, thymol 1 ppm, 24 h OD, read-out: Inhibition ± SD (%)): 4.1 ± 2.9% | inhibition at 3.1 ppm ([1]; Alternaria alternata, thymol 3.1 ppm, 24 h OD, read-out: Inhibition ± SD (%)): 10.4 ± 2.6% | inhibition at 10 ppm ([1]; Alternaria alternata, thymol 10 ppm, 24 h OD, read-out: Inhibition ± SD (%)): 16 ± 2% | inhibition at 31 ppm ([1]; Alternaria alternata, thymol 31 ppm, 24 h OD, read-out: Inhibition ± SD (%)): 29% | inhibition at 100 ppm ([1]; Alternaria alternata, thymol 100 ppm, 24 h OD, read-out: Inhibition ± SD (%)): 69.4% | Inhibition ± SD (%) ([2]; thymol 35 ppm): 4.3 ± 0.7% | Inhibition ± SD (%) ([2]; thymol 150 ppm): 16.2 ± 3.2% | Inhibition ± SD (%) ([2]; thymol 350 ppm): 33.6 ± 5.6% | Inhibition ± SD (%) [2, 12]: 34% | Inhibition ± SD (%) ([4]; thymol 35 ppm): 10.0% | Inhibition ± SD (%) ([4]; thymol 100 ppm): 15.2% | Inhibition ± SD (%) ([4]; thymol 200 ppm): 19.3% | Inhibition ± SD (%) ([4]; thymol 350 ppm): 21.3% | Inhibition ± SD (%) [4, 12]: 21% | inhibition at 0.31 ppm ([5]; Penicillium digitatum, 24 h, thymol 0.31 ppm, 24 h OD, read-out: Inhibition ± SD (%)): 28.2 ± 3.9% | inhibition at 1 ppm ([5]; Penicillium digitatum, 24 h, thymol 1 ppm, 24 h OD, read-out: Inhibition ± SD (%)): 24.2 ± 6% | inhibition at 3.1 ppm ([5]; Penicillium digitatum, 24 h, thymol 3.1 ppm, 24 h OD, read-out: Inhibition ± SD (%)): 36.3 ± 2.3% | inhibition at 10 ppm ([5]; Penicillium digitatum, 24 h, thymol 10 ppm, 24 h OD, read-out: Inhibition ± SD (%)): 36.2 ± 2% | inhibition at 31 ppm ([5]; Penicillium digitatum, 24 h, thymol 31 ppm, 24 h OD, read-out: Inhibition ± SD (%)): 51% | inhibition at 100 ppm ([5]; Penicillium digitatum, 24 h, thymol 100 ppm (first column headed 100), 24 h OD, read-out: Inhibition ± SD (%)): 78.3 ± 2.2% | inhibition at 100 ppm ([5]; Penicillium digitatum, 24 h, thymol 100 ppm (second column headed 100), 24 h OD, read-out: Inhibition ± SD (%)): 95.6 ± 0.5% | Inhibition ± SD (%) ([5]; thymol 31 ppm, 24 h OD): 50.7 ± 2.0% | inhibition at 0.31 ppm ([6]; Botrytis cinerea, 24 h, thymol 0.31 ppm, 24 h OD, read-out: Inhibition ± SD (%)): 0% | inhibition at 1 ppm ([6]; Botrytis cinerea, 24 h, thymol 1 ppm, 24 h OD, read-out: Inhibition ± SD (%)): 2.1 ± 2.9% | inhibition at 3.1 ppm ([6]; Botrytis cinerea, 24 h, thymol 3.1 ppm, 24 h OD, read-out: Inhibition ± SD (%)): 10.7 ± 2.3% | inhibition at 10 ppm ([6]; Botrytis cinerea, 24 h, thymol 10 ppm, 24 h OD, read-out: Inhibition ± SD (%)): 13% | inhibition at 31 ppm ([6]; Botrytis cinerea, 24 h, thymol 31 ppm, 24 h OD, read-out: Inhibition ± SD (%)): 32 ± 1.7% | inhibition at 100 ppm ([6]; Botrytis cinerea, 24 h, thymol 100 ppm, 24 h OD, read-out: Inhibition ± SD (%)): 88.2 ± 0.6% | Inhibition ± SD (%) ([6]; thymol 10 ppm, 24 h OD): 12.6 ± 2.4% | Inhibition ± SD (%) ([7]; thymol 35 ppm): 7.4% | Inhibition ± SD (%) ([7]; thymol 100 ppm): 17.7% | Inhibition ± SD (%) ([7]; thymol 200 ppm): 20.9% | Inhibition ± SD (%) ([7]; thymol 350 ppm): 22.8% | Inhibition ± SD (%) [7, 12]: 23%

From patent US10820597B2, “Phytosanitary composition comprising essential oils that potentiate antifungal activity” (BIOFUNGITEK, S. L., priority 2011, dated 2020)
